Tests used:
Type in all cases: cell-based, human
EGFR-Tyr992 = assay: Western blot, inhibition of EGFR phosphorylation; details: H1975 cells
Method: (§1) (1) Various cell lines in the logarithmic growth phase were evenly inoculated in a 6-well plate at a concentration of 3×10^6 cells/well, respectively, and cultured for 24 h;
(§2) (2) The culture supernatant was removed, and then the cells were washed twice with PBS, and treated with serum-free medium for 1 hour;
(§3) (3) The culture supernatant was removed, and each compound at different concentrations was added, then the cells were treated for 2 h;
(§4) (4) The supernatant was removed, and the cells were washed twice with pre-cooled PBS, then the supernatant was discarded;
(§5) (5) 100 μl of cell lysate was added to each well, and cells were lysed on ice for 10 min. The cells were scraped with a cell scraper. The cell lysate was transferred to a pre-cooled 1.5 ml EP tube, sonicated, and centrifuged under 12000 rpm at 4° C. for 10 min. The supernatant was carefully aspirated and stored at −20° C.
(§6) (6) To the aliquoted total cell protein, was added 5 μl of 5× loading buffer, and the protein was denatured in a water bath at 100° C. for 10 min, then the sample was centrifugated and loaded;
(1) The successfully transferred membrane was placed in the 1× blocking solution prepared, and kept in the blocking solution at room temperature for about 1 h; […]

ERK1/2 = assay: Western blot, inhibition of ERK1/2 phosphorylation
Method: as §1, §2, §3, §4, §5, §6
(§7) (1) The successfully transferred membrane was placed in the 1× blocking solution prepared, and kept in the blocking solution at room temperature for about 1 h;
(§8) (2) EGFR protein and its downstream proteins were diluted with 1× primary antibody diluent, and incubated overnight at 4° C., using […] antibody as an internal reference;
(§9) (3) The membrane was washed 3 times with 1×TBST, 5 min for each time, and then washed with 1× secondary antibody dilution, followed by incubation for 1 h at room temperature. Finally, the membrane was washed 3 times with 1×TBST, 15 min for each time.
(§10) (2) The mixed ECL reagent was added to PVDF membrane (1 ml/10 cm^2), and subjected to chemiluminescence to obtain a band;
(§11) Western Blot method was used to analyze the influence of each compound on the expression of pathway proteins.

Akt = assay: Western blot, inhibition of Akt phosphorylation
Method: as §1, §2, §3, §4, §5, §6, §7, §8, §9, §10, §11

H1975 cells [1] = assay: Cell cycle, PI staining, flow cytometry; details: for G2/M phase (%): 18 h (control 14.52); for S phase (%): 18 h (control 30.25); for G0/G1 phase (%): 18 h (control 55.23)
Method: (§12) A variety of different cells in the logarithmic growth phase were inoculated evenly in a 6-well plate at a concentration of 1×10^6 cells/well, 2 ml for each well, and then incubated overnight. Then, different compounds were added, and each compound was set different concentrations. After 18 h, the cells were collected, resuspended in PBS, and centrifuged to remove the supernatant, to which was then added 0.5 ml of pre-cooled 75% absolute ethanol dropwise, followed by vortexing to mix the cells and standing overnight at 4° C. The solution was centrifuged at 1000 rpm/min for 4 min, and the supernatant was discarded. Propidium iodide staining solution was prepared by using 5.6 ml staining buffer, 210 μl propidium iodide staining solution (25×), and 56 μl RNaseA (2.5 mg/ml). 0.4 ml of propidium iodide staining solution was added to each tube to resuspend the cells, and then incubated for 30 min at room temperature in the dark. The cell suspension was gently pipetted to mix, filtered into a flow tube, and stored in the dark at 4° C. The cells were detected on the flow cytometer within 1 h.

HCC827 cells [2] = assay: Cell cycle, PI staining, flow cytometry; details: for G2/M phase (%): 18 h (control 24.99); for S phase (%): 18 h (control 33.66); for G0/G1 phase (%): 18 h (control 41.35)
Method: as §12

H1975 cells [3] = assay: Apoptosis, Annexin V-FITC/PI double staining, flow cytometry; details: for Total apoptosis rate (%): 18 h (control 9.2)
Method: (§13) Apoptosis was detected by Annexin V-FITC/PI double staining method. A variety of different cells in the logarithmic growth phase were inoculated evenly in a 6-well plate at a concentration of 1×10^6 cells/well, 2 ml for each well, and then incubated overnight. Then, different compounds were added, and each compound was set different concentrations. After 18 h, the cells were collected with 0.25% trypsin without EDTA and washed twice with PBS solution. Then, the cells were stained by the apoptosis detection kit according to the instructions, and analyzed by flow cytometry.
(§14) In the experiment, human lung cancer cells HCC827 cells and H1975 cells were selected as the detection system. The control group was a blank control (DMSO). The test concentrations of the compounds were 0.5 μM and 5 μM. After treatment with the compounds for 18 h, the flow cytometry was used for detection. In the apoptosis result graph, the cells in quadrant E1 are necrotic cells, the cells in quadrant E2 are late apoptotic cells, the cells in quadrant E3 area represent live cells, and the cells in quadrant E4 are early apoptotic cells.

HCC827 cells [4] = assay: as above; details: for Total apoptosis rate (%): 18 h (control 10.8)
Method: as §13, §14

[5] = system: normal cells and different lung cancer cell lines; assay: Inhibition of cell proliferation, CCK8 method, comparison in words over the whole cell panel; details: BEAS-2B, HBE, H460, A549, H1975, HCC827; CCK8, 48 h
Method: Compounds 1-9 of the present invention were respectively weighed and dissolved in 1 ml of dimethyl sulfoxide (DMSO), to prepare a 10 mM drug solution, which was stored in a refrigerator at −20° C. in the dark after packaging. The stock solution was diluted with the corresponding culture medium to the required concentration just before the experiment.
HBE cells and BEAS-2B cells are normal lung bronchial epithelial cell lines, and both cells were cultured in DMEM high glucose medium (supplemented with 10% fetal bovine serum and 1% double antibody) to the logarithmic growth phase; H460 cells, A549 cells, H1975 cells and HCC827 cells are lung cancer cell lines, and all of them were cultured in RPMI1640 medium (supplemented with 10% fetal bovine serum and 1% double antibody) to the logarithmic growth phase. Among them, H1975 cells and HCC827 cells are EGFR mutant cells.
When the cells were cultured to 90% of the growth density, the cells were digested with 0.25% trypsin to prepare a single cell suspension. The cells were counted, and then seeded in a 96-well plate at a density of 5000 cells/well, 100 μl for each well. The culture plate was moved into a CO2 incubator and incubated for 24 h at 37° C. and 5% CO2. Compounds at different concentrations were added to each well, 5 replicate wells for each concentration, and the cells were treated with the compounds for 48 hours. CCK8 detection reagent was added to each well according to the operation manual, and then the plate was further incubated for 1 h before terminating the culture. 450 nm wavelength was chosen, and the absorbance value of each well was adjusted on the microplate ELISA analyzer. The result was recorded. […] was taken as the horizontal axis, and absorbance as the vertical axis to plot a curve. The half inhibitory concentration (IC50) was calculated by Bliss method. Each experiment was repeated at least 3 times.
Normal lung cell lines and different lung cancer cell lines were selected for experiments. Amongst, the compound with high anti-cancer activity was screened, whose anti-tumor activity was further studied.

SMILES | inhibition of phosphorylation of EGFR-Tyr992 (EGFR-Tyr992) | inhibition of phosphorylation of ERK1/2 (ERK1/2; H1975 cells) | inhibition of phosphorylation of ERK1/2 (ERK1/2; wild-type EGFR cells) | inhibition of phosphorylation of Akt (Akt; H1975 cells) | inhibition of phosphorylation of Akt (Akt; wild-type EGFR cells) | ratio of cells in the G0/G1 phase compared with the control group (in words) (H1975 cells [1]) | G2/M phase (%) (H1975 cells [1]; 0.5 μM) | S phase (%) (H1975 cells [1]; 0.5 μM) | G0/G1 phase (%) (H1975 cells [1]; 0.5 μM) | G2/M phase (%) (H1975 cells [1]; 5 μM) | S phase (%) (H1975 cells [1]; 5 μM) | G0/G1 phase (%) (H1975 cells [1]; 5 μM) | ratio of cells in the G0/G1 phase compared with the control group (in words) (HCC827 cells [2]) | G2/M phase (%) (HCC827 cells [2]; 0.5 μM) | S phase (%) (HCC827 cells [2]; 0.5 μM) | G0/G1 phase (%) (HCC827 cells [2]; 0.5 μM) | G2/M phase (%) (HCC827 cells [2]; 5 μM) | S phase (%) (HCC827 cells [2]; 5 μM) | G0/G1 phase (%) (HCC827 cells [2]; 5 μM) | inhibitory effect on different cell lines (in words) [5] | also measured
C=CC(=O)Nc1cccc(Oc2nc(Nc3ccc(N4CCN(C)CC4)c(N)c3)nc3[nH]ccc23)c1 [Compound 6] | effectively inhibited | inhibited | much weaker inhibitory effects | inhibited | much weaker inhibitory effects | significantly higher | 10.49 | 5.28 | 84.24 | 13.18 | 10.59 | 76.23 | significantly higher | 10.27 | 11.62 | 78.11 | 7.95 | 13.93 | 78.12 | – | apoptosis-inducing effect (in words) (H1975 cells [3]): certain apoptosis-inducing effects; Total apoptosis rate (%) (H1975 cells [3]; 0.5 μM): 16.4%; Total apoptosis rate (%) (H1975 cells [3]; 5 μM): 16.1%; apoptosis-inducing effect (in words) (HCC827 cells [4]): certain apoptosis-inducing effects; Total apoptosis rate (%) (HCC827 cells [4]; 0.5 μM): 28.7%; Total apoptosis rate (%) (HCC827 cells [4]; 5 μM): 23.6%
C=CC(=O)Nc1cccc(Oc2nc(Nc3ccc(N4CCN(C)CC4)c([N+](=O)[O-])c3)nc3[nH]ccc23)c1 [Compound 5] | effectively inhibited | inhibited | much weaker inhibitory effects | inhibited | much weaker inhibitory effects | significantly higher | 9.17 | 4.64 | 86.20 | 11.64 | 14.04 | 74.33 | significantly higher | 9.72 | 16.99 | 73.29 | 14.12 | 4.36 | 81.52 | – | apoptosis-inducing effect (in words) (H1975 cells [3]): certain apoptosis-inducing effects; Total apoptosis rate (%) (H1975 cells [3]; 0.5 μM): 12.7%; Total apoptosis rate (%) (H1975 cells [3]; 5 μM): 13.5%; apoptosis-inducing effect (in words) (HCC827 cells [4]): certain apoptosis-inducing effects; Total apoptosis rate (%) (HCC827 cells [4]; 0.5 μM): 30.3%; Total apoptosis rate (%) (HCC827 cells [4]; 5 μM): 23.8%
C=CC(=O)Nc1cccc(Oc2nc(Nc3ccc(N4CCN(C)CC4)c(I)c3)nc3c2ccn3COC(=O)C(C)(C)C)c1 [Compound 9] | – | – | – | – | – | – | – | – | – | – | – | – | – | – | – | – | – | – | – | poorer than that of other compounds | –
C=CC(=O)Nc1cccc(Oc2nc(Nc3ccc(N4CCN(C)CC4)c(Cl)c3)nc3[nH]ccc23)c1 [Compound 2] | – | – | – | – | – | – | – | – | – | – | – | – | – | – | – | – | – | – | – | basically the same as that of the positive control | –
C=CC(=O)Nc1cccc(Oc2nc(Nc3ccc(N4CCN(C)CC4)c(N)c3)nc3c2ccn3COC(=O)C(C)(C)C)c1 [Compound 8] | – | – | – | – | – | – | – | – | – | – | – | – | – | – | – | – | – | – | – | relatively poor inhibitory effects on other cell lines | –
